Active and inactive are the calls of the source. No cut-off for these calls is given here.
How the values were obtained:
[1] = target: T1, Poly [ADP-ribose] polymerase 1 (Homo sapiens, UniProt P09874); assay: Inhibition of PARP1 (unknown origin) at 1 nM preincubated with compound for 10 mins followed by DNA and NAD+ addition and measured after 60 mins by chemiluminescence based envision reader analysis relative to control; details: time 70.0 min
[2] = target: T1, Poly [ADP-ribose] polymerase 1; assay: Inhibition of PARP1 (unknown origin) preincubated with compound for 10 mins followed by DNA and NAD+ addition and measured after 60 mins by chemiluminescence based envision reader analysis
[3] = Half life in male Balb/c mouse at 1 mg/kg, po measured upto 96 hrs by LC-MS/MS analysis; assay type: ADME, organism-based; details: in vivo, po, 1 mg/kg, 96 h
[4] = Clearance in male Balb/c mouse at 1 mg/kg, po measured upto 96 hrs by LC-MS/MS analysis; assay type: ADME, organism-based; details: in vivo, po, 1 mg/kg, 96 h
[5] = AUC(0 to t) in male Balb/c mouse at 1 mg/kg, po measured upto 96 hrs by LC-MS/MS analysis; assay type: ADME, organism-based; details: in vivo, po, 1 mg/kg, 96 h
[6] = Cmax in male Balb/c mouse at 1 mg/kg, iv measured upto 96 hrs by LC-MS/MS analysis; assay type: ADME, organism-based; details: in vivo
[7] = Half life in male Balb/c mouse at 1 mg/kg, iv measured upto 96 hrs by LC-MS/MS analysis; assay type: ADME, organism-based; details: in vivo, iv, 1 mg/kg, 96 h
[8] = Clearance in male Balb/c mouse at 1 mg/kg, iv measured upto 96 hrs by LC-MS/MS analysis; assay type: ADME, organism-based; details: in vivo, iv, 1 mg/kg, 96 h
[9] = AUC(0 to t) in male Balb/c mouse at 1 mg/kg, iv measured upto 96 hrs by LC-MS/MS analysis; assay type: ADME, organism-based; details: in vivo, iv, 1 mg/kg, 96 h
[10] = Cmax in rat at 2.5 mg/kg, iv measured upto 96 hrs by LC-MS/MS analysis; assay type: ADME, organism-based; details: in vivo
[11] = Tmax in rat at 2.5 mg/kg, iv measured upto 96 hrs by LC-MS/MS analysis; assay type: ADME, organism-based; details: in vivo
[12] = Tmax in rat at 2.5 mg/kg, po measured upto 96 hrs by LC-MS/MS analysis; assay type: ADME, organism-based; details: in vivo
[13] = Clearance in rat at 2.5 mg/kg, iv measured upto 96 hrs by LC-MS/MS analysis; assay type: ADME, organism-based; details: in vivo
[14] = Apparent volume of distribution in rat at 2.5 mg/kg, iv measured upto 96 hrs by LC-MS/MS analysis; assay type: ADME, organism-based; details: in vivo, read-out: Vz
[15] = AUC(0 to t) in rat at 2.5 mg/kg, po measured upto 96 hrs by LC-MS/MS analysis; assay type: ADME, organism-based; details: in vivo
[16] = target: Poly [ADP-ribose] polymerase 2 (Homo sapiens, UniProt Q9UGN5); assay: Inhibition of PARP2 in PARP1 knockout human A549 cells preincubated with compound for 1 hr followed by H2O2 addition and measured after 5 mins by selective targeting PARylation inhibition assay; assay type: cell-based
[17] = test system: DLD-1; assay: Inhibition of colony formation in wild type human DLD-1 cells assessed as reduction in survival rate at 2.5 to 20 uM incubated for 10 days by crystal violet staining based assay; assay type: functional, cell-based; details: dose 2.5-20 µM, time 10.0 day
[18] = test system: MDA-MB-436; assay: Induction of apoptosis in human MDA-MB-436 cells assessed as early apoptotic cells at 1 nM incubated for 3 days by Annexin V/ PI staining based flow cytometry (reference value: 12.8%); assay type: functional; details: time 3 day
[19] = test system: MDA-MB-436; assay: Induction of apoptosis in human MDA-MB-436 cells assessed as late apoptotic cells at 1 nM incubated for 3 days by Annexin V/ PI staining based flow cytometry (reference value: 6.57%); assay type: functional; details: time 3 day
[20] = test system: MDA-MB-436; assay: Induction of apoptosis in human MDA-MB-436 cells assessed as late apoptotic cells at 100 nM incubated for 3 days by Annexin V/ PI staining based flow cytometry (reference value: 6.57%); assay type: functional; details: time 3 day
[21] = test system: MDA-MB-436; assay: Induction of cell cycle arrest in human MDA-MB-436 cells assessed as accumulation of cells at S phase at 10 nM incubated for 3 days by PI staining based flow cytometric analysis (Rvb =18.94%); assay type: functional; details: time 3 day
[22] = test system: MDA-MB-436; assay: Induction of cell cycle arrest in human MDA-MB-436 cells assessed as accumulation of cells at S phase at 100 nM incubated for 3 days by PI staining based flow cytometric analysis (Rvb =18.94%); assay type: functional; details: time 3 day
[23] = test system: MDA-MB-436; assay: Induction of cell cycle arrest in human MDA-MB-436 cells assessed as accumulation of cells at G2/M phase at 100 nM incubated for 3 days by PI staining based flow cytometric analysis (Rvb =24.88%); assay type: functional; details: time 3 day
[24] = test system: MDA-MB-436; assay: Induction of DNA damage in human MDA-MB-436 cells assessed as increase in tail intensity at 100 to 1000 nM incubated for 3 days by PI staining based fluorescence microscopic analysis; assay type: functional, cell-based; details: dose 100-1000 nM, time 3.0 day
[25] = test system: MDA-MB-436; assay: Antitumor activity against human MDA-MB-436 cells xenografted in female NOD/SCID mouse assessed as weaker Ki67 staining at 0.3 to 3 mg/kg, po administered once every other day for 28 days by immunohistochemical analysis; assay type: functional, organism-based; details: dose 0.3-3 mg/kg, time 28.0 day
[26] = Acute toxicity in Kunming mouse assessed as mortality at 30 to 100 mg/kg administered via gavage once every other day for 14 days; assay type: organism-based; details: in vivo, po, 336 h, dose 30-100 mg/kg, time 14 day
[27] = Acute toxicity in Kunming mouse assessed as mortality at 100 to 300 mg/kg administered orally via gavage for 14 days; assay type: organism-based; details: in vivo, po, 336 h, dose 100-300 mg/kg, time 14 day
[28] = Acute toxicity in Kunming mouse assessed as change in liver structure at 300 mg/kg administered via gavage for 14 days by H and E staining based analysis; assay type: organism-based; details: in vivo, po, 336 h, time 14 day
[29] = Acute toxicity in Kunming mouse assessed as change in kidney structure at 300 mg/kg administered via gavage for 14 days by H and E staining based analysis; assay type: organism-based; details: in vivo, po, 336 h, time 14 day
[30] = Sub-acute toxicity in Kunming mouse assessed as change ALB2 level at 100 to 300 mg/kg administered via gavage for 14 days; assay type: organism-based; details: in vivo, po, 336 h, dose 100-300 mg/kg, time 14 day
[31] = Sub-acute toxicity in Kunming mouse assessed as change ASTL level at 100 to 300 mg/kg administered via gavage for 14 days; assay type: organism-based; details: in vivo, po, 336 h, dose 100-300 mg/kg, time 14 day
[32] = Sub-acute toxicity in Kunming mouse assessed as change CK level at 100 to 300 mg/kg administered via gavage for 14 days; assay type: organism-based; details: in vivo, po, 336 h, dose 100-300 mg/kg, time 14 day
[33] = Sub-acute toxicity in Kunming mouse assessed as change CREA2 level at 100 to 300 mg/kg administered via gavage for 14 days; assay type: organism-based; details: in vivo, po, 336 h, dose 100-300 mg/kg, time 14 day
[34] = Sub-acute toxicity in Kunming mouse assessed as change LDH2 level at 100 to 300 mg/kg administered via gavage for 14 days; assay type: organism-based; details: in vivo, po, 336 h, dose 100-300 mg/kg, time 14 day
[35] = Sub-acute toxicity in Kunming mouse assessed as change UREAL level at 100 to 300 mg/kg administered via gavage for 14 days; assay type: organism-based; details: in vivo, po, 336 h, dose 100-300 mg/kg, time 14 day
[36] = Sub-acute toxicity in Kunming mouse assessed as change ASTL level at 30 to 100 mg/kg administered via gavage once every other day for 14 days; assay type: organism-based; details: in vivo, po, 336 h, dose 30-100 mg/kg, time 14 day
[37] = test system: MDA-MB-436; assay: Antitumor activity against luciferase tagged human MDA-MB-436 cells xenografted in female NOD-SCID mouse assessed as median survival time at 3 mg/kg, po administered once a day for 34 days; assay type: functional; details: time 34 day

T1 sequence (P09874 whole entry): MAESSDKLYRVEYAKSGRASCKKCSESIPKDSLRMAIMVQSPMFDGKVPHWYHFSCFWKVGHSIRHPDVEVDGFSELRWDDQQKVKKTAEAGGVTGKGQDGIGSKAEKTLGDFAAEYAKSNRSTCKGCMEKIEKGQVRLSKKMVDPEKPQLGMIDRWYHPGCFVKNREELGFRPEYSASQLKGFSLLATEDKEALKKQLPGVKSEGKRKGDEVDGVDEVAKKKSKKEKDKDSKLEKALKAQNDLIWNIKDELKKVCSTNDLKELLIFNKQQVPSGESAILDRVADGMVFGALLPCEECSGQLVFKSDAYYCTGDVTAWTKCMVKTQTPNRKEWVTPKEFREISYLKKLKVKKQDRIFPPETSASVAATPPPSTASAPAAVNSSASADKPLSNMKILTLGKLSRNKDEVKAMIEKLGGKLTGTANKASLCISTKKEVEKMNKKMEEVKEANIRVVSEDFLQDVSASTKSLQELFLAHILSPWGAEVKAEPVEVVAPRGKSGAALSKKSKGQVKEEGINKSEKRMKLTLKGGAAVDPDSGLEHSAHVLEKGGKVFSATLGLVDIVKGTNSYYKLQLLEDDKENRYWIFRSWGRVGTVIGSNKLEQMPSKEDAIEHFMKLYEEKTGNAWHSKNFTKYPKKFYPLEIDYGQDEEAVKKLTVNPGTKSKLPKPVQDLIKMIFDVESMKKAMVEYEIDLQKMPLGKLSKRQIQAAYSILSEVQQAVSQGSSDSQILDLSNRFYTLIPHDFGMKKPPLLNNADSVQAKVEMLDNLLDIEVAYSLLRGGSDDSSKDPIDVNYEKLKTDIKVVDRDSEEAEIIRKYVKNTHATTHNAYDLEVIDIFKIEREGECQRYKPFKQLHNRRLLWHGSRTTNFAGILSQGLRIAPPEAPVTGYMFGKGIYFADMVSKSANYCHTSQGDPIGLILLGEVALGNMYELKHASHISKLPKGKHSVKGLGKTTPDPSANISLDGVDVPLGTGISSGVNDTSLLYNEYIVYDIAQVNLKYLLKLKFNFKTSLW
Chain of Poly [ADP-ribose] polymerase 2 (Q9UGN5 whole entry): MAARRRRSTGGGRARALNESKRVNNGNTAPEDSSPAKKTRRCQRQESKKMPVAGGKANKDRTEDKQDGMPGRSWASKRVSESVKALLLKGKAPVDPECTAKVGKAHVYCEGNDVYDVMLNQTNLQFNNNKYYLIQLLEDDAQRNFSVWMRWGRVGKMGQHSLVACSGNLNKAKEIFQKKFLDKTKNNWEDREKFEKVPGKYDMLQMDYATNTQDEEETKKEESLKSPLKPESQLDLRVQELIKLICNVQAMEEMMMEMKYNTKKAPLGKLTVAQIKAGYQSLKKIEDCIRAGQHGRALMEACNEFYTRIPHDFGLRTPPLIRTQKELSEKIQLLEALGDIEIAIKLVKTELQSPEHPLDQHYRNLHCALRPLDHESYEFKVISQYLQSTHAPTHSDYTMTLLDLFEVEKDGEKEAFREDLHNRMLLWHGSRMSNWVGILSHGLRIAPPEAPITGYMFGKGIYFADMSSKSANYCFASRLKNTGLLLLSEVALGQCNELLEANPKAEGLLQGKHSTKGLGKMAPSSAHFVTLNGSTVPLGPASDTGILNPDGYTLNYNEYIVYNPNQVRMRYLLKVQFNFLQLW

With `CCc1cc2ncc(CN3CC=C(c4ccc(C#N)cn4)CC3)cc2[nH]c1=O` as the compound, how does the inhibition [1] read?
Its inhibition is 93.6%.

And the IC50 [2]?
The IC50 was 0.2 nM.

What about the t1/2 [3] of the same compound?
The t1/2 was 76.07 h.

And the CL [4]?
The CL was 0.17 mL/min/kg.

And the AUCt [5]?
Its AUCt is 787.38372 µg·h/mL.

And the Cmax [6]?
Its Cmax is 10700 ng/mL.

And the t1/2 [7]?
The t1/2 was 107.53 h.

And the CL [8]?
Its CL is 0.17 mL/min/kg.

What about the AUCt [9] of the same compound?
The AUCt was 897.43221 µg·h/mL.

And the Cmax [10]?
Its Cmax is 13900 ng/mL.

What about the Tmax [11] of the same compound?
Its Tmax is 4.8 min.

And the Tmax [12]?
Its Tmax is 8 h.

And the clearance [13]?
Its clearance is 0.167 mL/min/kg.

And the Vd [14]?
Its Vd is 0.21 L/kg.

And the AUC(0-t) at 96 h [15]?
The AUC(0-t) at 96 h was 520 µg·h/mL.

And the IC50 [16]?
The IC50 was 5190 nM.

What about the inhibition [17] of the same compound?
The inhibition was “inactive”.

What about the Activity [18] of the same compound?
The Activity was 17%.

What about the Activity [19] of the same compound?
Its Activity is 8.18%.

And the Activity [20]?
Its Activity is 9.92%.

What about the Activity [21] of the same compound?
Its Activity is 10.18%.

What about the Activity [22] of the same compound?
The Activity was 9.37%.

What about the Activity [23] of the same compound?
Its Activity is 37.31%.

And the Activity [24]?
Its Activity is “Active”.

What about the Activity [25] of the same compound?
Its Activity is “Active”.

And the Activity [26]?
Its Activity is “Non-toxic”.

And the Activity [27]?
The Activity was “Non-toxic”.

What about the Activity [28] of the same compound?
Its Activity is “Non-toxic”.

What about the Activity [29] of the same compound?
Its Activity is “Non-toxic”.

And the Activity [30]?
Its Activity is “Non-toxic”.

What about the Activity [31] of the same compound?
The Activity was “Non-toxic”.

And the Activity [32]?
Its Activity is “Non-toxic”.

What about the Activity [33] of the same compound?
The Activity was “Non-toxic”.

And the Activity [34]?
Its Activity is “Non-toxic”.

And the Activity [35]?
The Activity was “Non-toxic”.

What about the Activity [36] of the same compound?
The Activity was “Non-toxic”.

What about the Survival [37] of the same compound?
The Survival was over 60 days.
